# Experiments:
# [1] = test system: Human pancreatic xenograft (Panc-4); assay: EPT using MedPulser and bleomycin, Panc-4 xenograft; type: in vivo, nude mice; settings: up to day 39 of observation
# Description: (§1) Preliminary experiments using MedPulser™ (apparatus of the invention) for treatment of tumor xenografts grown subcutaneously onto nude mice have shown encouraging results. […] Treatment of human prostate xenografts (PC-3) has also shown about 66% complete regression of tumors. (No tumors observed up to 60 days after treatment). Both 4 and 6 needle array are effective in treatment of tumors by EPT.
# [2] = test system: human prostate xenografts (PC-3); assay: EPT using MedPulser, PC-3 xenograft; type: in vivo, nude mice; settings: no tumors observed up to 60 days after treatment
# Description: as §1
# [3] = test system: PC-3 (human prostate cell line); assay: MedPulser 4 vs 6 needle array in vitro, XTT cell survival; type: cell-based; settings: bleomycin at 2×10^5 M, 20 hours
# Method: Experiments were carried out to compare the efficacy of 6 vs. 4 needle array with MedPulser™ on PC-3 (human prostate cell line) in vitro. Cells were suspended in RPMI media and seeded uniformly at 200,000 cells/ml. Bleomycin at […] was added to the wells (for D+E− and D+E+ only). Cells were electroporated in 24 well plates using the 6-needle and 4-needle array electrodes connected to the MedPulser. The electropulse parameters were 6×99 μs, 1129 V with the 6-needle array and 4×99 μs, 848 V with the 4-needle array. The cells were transferred to 96 well plates and incubated for 20 hours at 37° C. The cell survival was determined using XTT assay which is based on metabolic conversion of XTT to formazan and is measured spectrophotometrically at 450 nm. Only the cells which are live convert XTT to formazan. The percent cell survival values are relative values calculated from the O.D. values of the sample, a control with 100% cell survival (D−E−) and control with 0% cell survival (D−E− with SDS, which lyses all cells).
# [4] = test system: basal cell carcinomas and melanomas; assay: Clinical trials of bleomycin-EPT for basal cell carcinomas and melanomas; type: in vivo, humans; settings: for % RESPONSE CR D′D / % RESPONSE CR D′E′ / TUMOR RESPONSE CR D′D / TUMOR RESPONSE CR D′E′: CR=complete response; for % RESPONSE NE D′D / % RESPONSE NE D′E′ / TUMOR RESPONSE NE D′D / TUMOR RESPONSE NE D′E′: NE=no effect
# Description: The following examples illustrate the use of EPT in cell lines, animals and humans. Example 1 illustrates EPT in poorly differentiated human pancreatic tumors (Panc-3) xenografted subcutaneously on the flank of nude mice. […] Example 4 provides in vitro data for EPT utilizing low voltage (electric field) and long pulse length. The parameters for EPT are described in the examples; for Example 1 and for the head and neck clinical trials, the nominal electric field was 1300 V/cm and 6 pulses for 99-100 μsec, spaced at 1 second intervals. The clinical trials (Example 2) used similar parameters, however the electric field was 1130 V/cm. (Nominal electric field (V/cm) is applied voltage (V) across the needle pairs divided by the distance between the needle pairs (cm).) The Examples illustrate the use of EPT for effectively killing undesired cell populations (e.g., a tumor) in vitro and in vivo.
# The effectiveness of bleomycin-EPT on the tumors was to be assessed by the end of the eight-week period using the same tumor response criteria as employed in Example 1.
# The concentration of bleomycin administered was 5 U/1 mL. The dosages of bleomycin were administered as follows: […]
# [5] = cited from earlier work
# [6] = BCC nodules, PR=partial response
# [7] = Mel nodules, PR=partial response
# [8] = Other nodules, PR=partial response
# [9] = Total nodules, PR=partial response
substance,measurement,setting,value
bleomycin,mice with complete tumor regression,[1],about 75%
same,complete regression of tumors,[2],about 66%
same,Avg. % Survival,"[3]; D + E + (4N), 4×99 μs, 848 V, 4-needle array",4.78%
same,Avg. % Survival,"[3]; D + E + (6N), 6×99 μs, 1129 V, 6-needle array",−4.12%
same,Avg. % Survival,"[3]; D + E −, no pulse",27.71%
same,% RESPONSE CR D′D,[4]; BCC nodules,0%
same,% RESPONSE CR D′E′,[4]; BCC nodules,98%
same,TUMOR RESPONSE CR D′D,[4]; BCC nodules,0/6
same,TUMOR RESPONSE CR D′E′,[4]; BCC nodules,43/44
same,% RESPONSE NE D′D,[4]; BCC nodules,83%
same,% RESPONSE NE D′E′,[4]; BCC nodules,0%
same,TUMOR RESPONSE NE D′D,[4]; BCC nodules,5/6
same,TUMOR RESPONSE NE D′E′,"[4]; BCC nodules, less than 50% reduction in tumor volume",0/44
same,TUMOR RESPONSE PR D′E′,"[4]; BCC nodules, PR=50% or greater reduction in tumor volume",1/44
same,% RESPONSE PR D′D,[4]; [6],17%
same,% RESPONSE PR D′E′,[4]; [6],2%
same,TUMOR RESPONSE PR D′D,[4]; [6],1/6
same,% RESPONSE CR D′D,[4]; Mel nodules,0%
same,% RESPONSE CR D′E′,[4]; Mel nodules,91%
same,TUMOR RESPONSE CR D′D,[4]; Mel nodules,0/5
same,TUMOR RESPONSE CR D′E′,[4]; Mel nodules,53/58
same,% RESPONSE NE D′D,[4]; Mel nodules,100%
same,% RESPONSE NE D′E′,[4]; Mel nodules,2%
same,TUMOR RESPONSE NE D′D,[4]; Mel nodules,5/5
same,TUMOR RESPONSE NE D′E′,[4]; Mel nodules,1/58
same,% RESPONSE PR D′D,[4]; [7],0%
same,% RESPONSE PR D′E′,[4]; [7],7%
same,TUMOR RESPONSE PR D′D,[4]; [7],0/5
same,TUMOR RESPONSE PR D′E′,[4]; [7],4/58
same,% RESPONSE CR D′D,[4]; Other nodules,0%
same,% RESPONSE CR D′E′,[4]; Other nodules,80%
same,TUMOR RESPONSE CR D′D,[4]; Other nodules,0/3
same,TUMOR RESPONSE CR D′E′,[4]; Other nodules,4/5
same,% RESPONSE NE D′D,[4]; Other nodules,100%
same,% RESPONSE NE D′E′,[4]; Other nodules,0%
same,TUMOR RESPONSE NE D′D,[4]; Other nodules,3/3
same,TUMOR RESPONSE NE D′E′,[4]; Other nodules,0/5
same,% RESPONSE PR D′D,[4]; [8],0%
same,% RESPONSE PR D′E′,[4]; [8],20%
same,TUMOR RESPONSE PR D′D,[4]; [8],0/3
same,TUMOR RESPONSE PR D′E′,[4]; [8],1/5
same,% RESPONSE CR D′D,[4]; Total nodules,0%
same,% RESPONSE CR D′E′,[4]; Total nodules,93%
same,TUMOR RESPONSE CR D′D,[4]; Total nodules,0/14
same,TUMOR RESPONSE CR D′E′,[4]; Total nodules,100/107
same,% RESPONSE NE D′D,[4]; Total nodules,93%
same,% RESPONSE NE D′E′,[4]; Total nodules,1%
same,TUMOR RESPONSE NE D′D,[4]; Total nodules,13/14
same,TUMOR RESPONSE NE D′E′,[4]; Total nodules,1/107
same,% RESPONSE PR D′D,[4]; [9],7%
same,% RESPONSE PR D′E′,[4]; [9],6%
same,TUMOR RESPONSE PR D′D,[4]; [9],1/14
same,TUMOR RESPONSE PR D′E′,[4]; [9],6/107
same,log P (P being the partition coefficient between octanol and water),[5],very negative

# Source: patent US7412284B2, “Apparatus for electroporation mediated delivery for drugs and genes” (Genetronics, Inc., priority 1997, dated 2008)
